# Tests used:
# Type in all cases: physicochemical
# [1] = UV-Vis absorption spectroscopy (absorption maximum, extinction coefficient); settings: for λmax: absorption maximum, UV-vis; for ε (extinction coefficient): determined by UV-Vis spectroscopy, in M-1cm-1 (unit assumed)
# Description: (§1) All manipulation with photosensitive samples were accomplished under the red light (λ>600 nm). In the spectroscopy measurements, the lowest possible intensity of incident light was used; the spectroscopic identity of the samples was confirmed after each measurement to ensure that no unwanted photodegradation processes occurred. All measurements were accomplished using fresh solutions prepared in the dark. ^1H and ^13C NMR spectra were obtained in CDCl3 on 101, 125, 400 and 500 MHz spectrometers. ^1H chemical shifts are reported in ppm relative to the tetramethylsilane signal (TMS, δ=0.00 ppm), using the residual solvent signal as an internal reference. ^13C NMR chemical shifts are reported in ppm relative to the CDCl3 signal as an internal standard. IR spectra were recorded on an FTIR spectrophotometer. Mass spectra (MS) and high resolution mass spectra (HRMS) were recorded using an ESI and APCI techniques. Absorption spectra and the molar absorption coefficients were obtained on a UV-vis spectrometer with matched 1.0-cm quartz cells. […] A nanosecond flash lamp (filled with H2) was used to determine the fluorescence lifetimes. The data obtained were deconvolved from the measured decay curves of the sample and the instrumental response function. The quantum yields of fluorescence were obtained using a calibrated integration sphere.
# (§2) The observed substrate release rate as a function of photolysis time is quantified by the quantum efficiency parameter (εϕ), which is the product of the extinction coefficient at the irradiation wavelength (E) and the quantum yield (ϕ). Extinction coefficients for compounds 1-7 were determined by UV-Vis spectroscopy (see Table 1).
# [2] = Fluorescence emission spectroscopy; settings: emission maximum
# Description: as §1
# [3] = Quantum yield and quantum efficiency of photorelease on irradiation; settings: for εΦ (quantum efficiency): product of extinction coefficient and quantum yield; for Φ (quantum yield): solutions in methanol, λirr 365, 490, 507 nm
# Description: A solution of the given compound (3.0 mL) in a matched 1.0 cm quartz PTFE screw-cap fluorescence cuvette equipped with a stir bar was irradiated with a light source (32 LEDs emitting at the selected wavelength: λmax=365, 490, 507 nm; the bandwidths at half height=30 nm; high-pressure 450 W mercury-xenon arc lamp with a monochromator with 200-1600 nm grating set to 365±0.5 nm). The reaction progress was monitored by UV-vis spectrometry using a diode-array spectrophotometer in a kinetic mode.
# Photodegradation quantum yields for both aerated and degassed (freeze-pump-thaw technique; 3 cycles) solutions in methanol were determined at λirr=365 (LEDs and mercury-xenon arc lamp), 490 nm (LEDs), and 507 nm (LEDs) with xanthene-9-carboxylic acidl and BODIPY-CORM2 as actinometers; most values were cross-checked using ferrioxalate3 at λirr=365 nm. The data were processed using single value decomposition (SVD) software assuming the first-order rate law. The amount of absorbed light was calculated from the whole emission spectrum of the light source. […] All quantum yield measurements were repeated at least 6 times with independently prepared samples.
# as §2
Compound,λmax [1] [nm],ε (extinction coefficient) [1],λem [2] [nm],εΦ (quantum efficiency) [3],Φ (quantum yield) [3]
"CC1=CC(C)=[N+]2C1=C(COC(=O)Cc1ccccc1)c1c(C)cc(C)n1[B-]2(c1ccccc1)c1ccccc1 [Compound 4, 4,4′-Diphenyl-8-methyl-(2-phenylacetate)-1,3,5,7-tetramethyl-4-bora-3a,4a-diaza-s-indacene]",517,"58,300",562,583 M⁻¹ cm⁻¹,0.01
"CC[B-]1(CC)n2c(C)cc(C)c2C(COC(=O)Cc2ccccc2)=C2C(C)=CC(C)=[N+]21 [Compound 3, 4,4′-Diethyl-8-methyl-(2-phenylacetate)-1,3,5,7-tetramethyl-4-bora-3a,4a-diaza-s-indacene]",513,"55,300",550,"4,424 M^−1cm^−1",0.08
"2,6-Diiodo-4,4′-dimethyl-8-chloro ethyl-1,3,5,7-tetramethyl-4-bora-3a,4a-diaza-s-indacene [Compound 5]",542,"62,400",573,"59,280 M^−1cm^−1",0.95
"CC1=CC(C)=[N+]2C1=C(CCl)c1c(C)cc(C)n1[B-]2(C)C [Compound 1, 4,4′-Dimethyl-8-chloromethyl-1,3,5,7-tetramethyl-4-bora-3a,4a-diaza-s-indacene]",519,"60,580",556,"41,194 M^−1cm^−1",0.68
"CC1=C(I)C(C)=[N+]2C1=C(COC(=O)Cc1ccccc1)c1c(C)c(I)c(C)n1[B-]2(C)C [Compound 6, 2,6-Diiodo-4,4′-dimethyl-8-methyl-(2-phenylacetate)-1,3,5,7-tetramethyl-4-bora-3a,4a-diaza-s-indacene]",538,"60,700",572,"16,996 M^−1cm^−1",0.28
"CC1=CC(C)=[N+]2C1=C(COC(=O)Cc1ccccc1)c1c(C)cc(C)n1[B-]2(C)C [Compound 2, 4,4′-Dimethyl-8-methyl(2-phenylacetate)-1,3,5,7-tetramethyl-4-bora-3a,4a-diaza-s-indacene]",512,"68,500",550,"7,398 M^−1cm^−1",0.11

# — patent US10493153B2, “Alkylated photoremovable protecting groups and uses thereof” (Iowa State University Research Foundation, Inc., priority 2018, dated 2019)
